Assays:
[1] = system: MDA-MB-231 cells; experiment: Cell proliferation assay (CellTiter-Glo), MDA-MB-231; assay type: cell-based; details: Homo sapiens, MDA-MB-231, 72 h, 72 h treatment, Celltiter-Glo luminescence
In short: (§1)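 Compounds tested over ten concentrations ([…]) for 72 h on EVSA-T cells in MEM/10% FBS and MDA-MB-231 cells in RPMI-1640/10% FBS, seeded at 10000/well. Luminescent CellTiter-Glo readout; IC50 fitted after normalisation to controls.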

[2] = system: EVSA-T cells; experiment: Cell proliferation assay (CellTiter-Glo), EVSA-T; assay type: cell-based; details: Homo sapiens, EVSA-T, 72 h, 72 h treatment, Celltiter-Glo luminescence
In short: as §1

Row | IC50 [1] [nM] | SMILES | IC50 [2] [nM]
1 | 33 | C[C@@H]1CN(CC(=O)N2CC(C)(C)c3c2cc(Cc2ccc(F)cc2)c2nn(C4COC4)c(=O)n32)[C@@H](CN2CCOC[C@H]2C)CN1 [Compound 210, 4-(4-fluorobenzyl)-8,8-dimethyl-6-(2-((2R,5R)-5-methyl-2-(((R)-3-methylmorpholino)methyl)piperazin-1-yl)acetyl)-2-(oxetan-3-yl)-2,6,7,8-tetrahydro-1H-pyrrolo[2,3-e][1,2,4]triazolo[4,3-a]pyridin-1-one] | 3
2 | 47 | C[C@@H]1CN(CC(=O)N2CC(C)(C)c3c2cc(Cc2ccc(F)cc2)c2nn(Cc4cccc(F)n4)c(=O)n32)[C@@H](CN2CCOC[C@H]2C)CN1 [Compound 219, 4-(4-fluorobenzyl)-2-((6-fluoropyridin-2-yl)methyl)-8,8-di methyl-6-(2-((2R,5R)-5-methyl-2-(((R)-3-methylmorpholino)methyl)piperazin-1-yl)acetyl)-2,6,7,8-tetrahydro-1H-pyrrolo[2,3-e][1,2,4]triazolo[4,3-a]pyridin-1-one] | 2
3 | 68 | C[C@@H]1CN(CC(=O)N2CC(C)(C)c3c2cc(Cc2ccc(F)cc2)c2nn(Cc4ncccc4F)c(=O)n32)[C@@H](CN2CCOC[C@H]2C)CN1 [Compound 220, 4-(4-fluorobenzyl)-2-((3-fluoropyridin-2-yl)methyl)-8,8-di methyl-6-(2-((2R,5R)-5-methyl-2-(((R)-3-methylmorpholino)methyl)piperazin-1-yl)acetyl)-2,6,7,8-tetrahydro-1H-pyrrolo[2,3-e][1,2,4]triazolo[4,3-a]pyridin-1-one] | 2
4 | 82 | COCCn1nc2c(Cc3ccc(F)cc3)cc3c(n2c1=O)C(C)(C)CN3C(=O)CN1C[C@@H](C)NC[C@@H]1CN1CCOC[C@H]1C [Compound 227, 4-(4-fluorobenzyl)-2-(2-methoxyethyl)-8,8-dimethyl-6-(2-((2R,5R)-5-methyl-2-(((R)-3-methylmorpholino)methyl)piperazin-1-yl)acetyl)-2,6,7,8-tetrahydro-1H-pyrrolo[2,3-e][1,2,4]triazolo[4,3-a]pyridin-1-one] | 2
5 | 38 | C[C@@H]1CN(CC(=O)N2CC(C)(C)c3c2cc(Cc2ccc(F)cc2)c2nn(-c4ncccn4)c(=O)n32)[C@@H](CN2CCOC[C@H]2C)CN1 [Compound 230, 4-(4-fluorobenzyl)-8,8-dimethyl-6-(2-((2R,5R)-5-methyl-2-(((R)-3-methylmorpholino)methyl)piperazin-1-yl)acetyl)-2-(pyrimidin-2-yl)-2,6,7,8-tetrahydro-1H-pyrrolo[2,3-e][1,2,4]triazolo[4,3-a]pyridin-1-one] | 8
6 | 28 | C[C@@H]1CN(CC(=O)N2CC(C)(C)c3c2cc(Cc2ccc(F)cc2)c2nn(CC(C)(C)O)c(=O)n32)[C@@H](CN2CCOC[C@H]2C)CN1 [Compound 231, 4-(4-fluorobenzyl)-2-(2-hydroxy-2-methylpropyl)-8,8-dim ethyl-6-(2-((2R,5R)-5-methyl-2-(((R)-3-methylmorpholino)methyl)piperazin-1-yl)acetyl)-2,6,7,8-tetrahydro-1H-pyrrolo[2,3-e][1,2,4]triazolo[4,3-a]pyridin-1-one] | 4
7 | 87 | C[C@@H]1CN(CC(=O)N2CC(C)(C)c3c2cc(Cc2ccc(F)cc2)c2nn(Cc4cncnc4)c(=O)n32)[C@@H](CN2CCOC[C@H]2C)CN1 [Compound 236, 4-(4-fluorobenzyl)-8,8-dimethyl-6-(2-((2R,5R)-5-methyl-2-(((R)-3-methylmorpholino)methyl)piperazin-1-yl)acetyl)-2-(pyrimidin-5-ylmethyl)-2,6,7,8-tetrahydro-1H-pyrrolo[2,3-e][1,2,4]triazolo[4,3-a]pyridin-1-one] | 0.7

More lines, now with the values behind:

Row | SMILES | IC50 [1] [nM] | IC50 [2] [nM]
8 | C[C@@H]1CN(CC(=O)N2CC(C)(C)c3c2cc(Cc2ccc(F)cc2)c2nc(C4COCCO4)nn32)[C@@H](CN2CCOC[C@H]2C)CN1 (stereo partly drawn) [Compound 206, 1-(2-(1,4-dioxan-2-yl)-4-(4-fluorobenzyl)-8,8-dimethyl-7,8-dihydro-6H-pyrrolo[2,3-e][1,2,4]triazolo[1,5-a]pyridin-6-yl)-2-((2R,5R)-5-methyl-2-(((R)-3-methylmorpholino)methyl)piperazin-1-yl)ethan-1-one] | 18 | 2
9 | C[C@@H]1CN(CC(=O)N2CC(C)(C)c3c2cc(Cc2ccc(F)cc2)c2ncnn32)[C@@H](CN2Cc3cccc(F)c3C2=O)CN1 [Compound 207, 7-fluoro-2-(((2R,5R)-1-(2-(4-(4-fluorobenzyl)-8,8-dimethyl-7,8-dihydro-6H-pyrrolo[2,3-e][1,2,4]triazolo[1,5-a]pyridin-6-yl)-2-oxoethyl)-5-methylpiperazin-2-yl)methyl)isoindolin-1-one] | 20 | 2
10 | C[C@@H]1CN(CC(=O)N2CC(C)(C)c3c2cc(Cc2ccc(F)cc2)c2nc(CN(C)C)nn32)[C@@H](CN2CCOC[C@H]2C)CN1 [Compound 212, 1-(2-((dimethylamino)methyl)-4-(4-fluorobenzyl)-8,8-dimethyl-7,8-dihydro-6H-pyrrolo[2,3-e][1,2,4]triazolo[1,5-a]pyridin-6-yl)-2-((2R,5R)-5-methyl-2-(((R)-3-methylmorpholino)methyl)piperazin-1-yl)ethan-1-one] | 41 | 7
11 | C[C@@H]1CN(CC(=O)N2CC(C)(C)c3c2cc(Cc2ccc(F)cc2)c2ncnn32)[C@@H](CN2CC3CCC2CO3)CN1 (stereo partly drawn) [Compound 214, 2-((2R,5R)-2-((2-oxa-5-azabicyclo[2.2.2]octan-5-yl)methyl)-5-methylpiperazin-1-yl)-1-(4-(4-fluorobenzyl)-8,8-dimethyl-7,8-dihydro-6H-pyrrolo[2,3-e][1,2,4]triazolo[1,5-a]pyridin-6-yl)ethan-1-one] | 49 | 8
12 | C[C@@H]1CN(CC(=O)N2CC(C)(C)c3c2cc(Cc2ccc(F)cc2)c2nn([C@H]4CCOC4)c(=O)n32)[C@@H](CN2CCOC[C@H]2C)CN1 [Compound 218, 4-(4-fluorobenzyl)-8,8-dimethyl-6-(2-((2R,5R)-5-methyl-2-(((R)-3-methylmorpholino)methyl)piperazin-1-yl)acetyl)-2-((S)-tetrahydrofuran-3-yl)-2,6,7,8-tetrahydro-1H-pyrrolo[2,3-e][1,2,4]triazolo[4,3-a]pyridin-1-one] | 47 | 2
13 | CC(=O)c1nc2c(Cc3ccc(F)cc3)cc3c(n2n1)C(C)(C)CN3C(=O)CN1C[C@@H](C)NC[C@@H]1CN1CCOC[C@H]1C [Compound 224, 1-(2-acetyl-4-(4-fluorobenzyl)-8,8-dimethyl-7,8-dihydro-6H-pyrrolo[2,3-e][1,2,4]triazolo[1,5-a]pyridin-6-yl)-2-((2R,5R)-5-methyl-2-(((R)-3-methylmorpholino)methyl)piperazin-1-yl)ethan-1-one] | 120 | 2
14 | COC(=O)N(C)c1nc2c(Cc3ccc(F)cc3)cc3c(n2n1)C(C)(C)CN3C(=O)CN1C[C@@H](C)NC[C@@H]1CN1CCOC[C@H]1C [Compound 225, methyl (4-(4-fluorobenzyl)-8,8-dimethyl-6-(2-((2R,5R)-5-methyl-2-(((R)-3-methylmorpholino)methyl)piperazin-1-yl)acetyl)-7,8-dihydro-6H-pyrrolo[2,3-e][1,2,4]triazolo[1,5-a]pyridin-2-yl)(methyl)carbamate] | 50 | 2
15 | C[C@@H]1CN(CC(=O)N2CC(C)(C)c3c2cc(Cc2ccc(F)cc2)c2nn([C@@H]4CCOC4)c(=O)n32)[C@@H](CN2CCOC[C@H]2C)CN1 [Compound 228, 4-(4-fluorobenzyl)-8,8-dimethyl-6-(2-((2R,5R)-5-methyl-2-(((R)-3-methylmorpholino)methyl)piperazin-1-yl)acetyl)-2-((R)-tetrahydrofuran-3-yl)-2,6,7,8-tetrahydro-1H-pyrrolo[2,3-e][1,2,4]triazolo[4,3-a]pyridin-1-one] | 9 | 2
16 | C[C@@H]1CN(CC(=O)N2CC(C)(C)c3c2cc(Cc2ccc(F)cc2)c2nc(N4C[C@@H](O)[C@@H](O)C4)nn32)[C@@H](CN2CCOC[C@H]2C)CN1 [Compound 229, 1-(2-((3R,4S)-3,4-dihydroxypyrrolidin-1-yl)-4-(4-fluorobenzyl)-8,8-dimethyl-7,8-dihydro-6H-pyrrolo[2,3-e][1,2,4]triazolo[1,5-a]pyridin-6-yl)-2-((2R,5R)-5-methyl-2-(((R)-3-methylmorpholino)methyl)piperazin-1-yl)ethan-1-one] | 76 | 7
17 | COC(=O)Nc1nc2c(Cc3ccc(F)cc3)cc3c(n2n1)C(C)(C)CN3C(=O)CN1C[C@@H](C)NC[C@@H]1CN1CCOC[C@H]1C [Compound 234, methyl (4-(4-fluorobenzyl)-8,8-dimethyl-6-(2-((2R,5R)-5-methyl-2-(((R)-3-methylmorpholino)methyl)piperazin-1-yl)acetyl)-7,8-dihydro-6H-pyrrolo[2,3-e][1,2,4]triazolo[1,5-a]pyridin-2-yl)carbamate] | 10 | 0.7
18 | C[C@@H]1CN(CC(=O)N2CC(C)(C)c3c2cc(Cc2ccc(F)cc2)c2nc(N4CCN(C)C4=O)nn32)[C@@H](CN2CCOC[C@H]2C)CN1 [Compound 235, 1-(4-(4-fluorobenzyl)-8,8-dimethyl-6-(2-((2R,5R)-5-methyl-2-(((R)-3-methylmorpholino)methyl)piperazin-1-yl)acetyl)-7,8-dihydro-6H-pyrrolo[2,3-e][1,2,4]triazolo[1,5-a]pyridin-2-yl)-3-methylimidazolidin-2-one] | 38 | 1.3

Source: patent US20250179073A1, “TRICYCLIC HETEROCYCLE COMPOUNDS AS IAP ANTAGONISTS” (Ascentage Pharma (Suzhou) Co., Ltd., priority 2022, published 2025)
